Measurements from patent publication US9387160B2, “Composition and method of treating skin conditions” (Johnson & Johnson Consumer Holdings France, priority 2008, dated 2016).

How the values were obtained:
[1] = Relative polarity index (RPI = log K, octanol/water partition coefficient); format: physicochemical; conditions: difference between Emollient RPI and Retinoid RPI
Description: The relative polarity index (RPI) of an emollient is well known by the one skilled in the art. The methodology for its calculation is described in the article published by Wiesher et al. 2004 Int J. Cosmetic Science. 26, 173-182. RPI can be calculated from the octanol/water partition coefficient (K) with: RPI=log K. Partition coefficient estimations K have been published, for example in: • Leo A, Hansch C, and Elkins D (1971). “Partition coefficients and their uses”. Chem Rev 71 (6): 525-616. • Wilkinson, Andrew M.; McNaught, Alan D. (1997). “Partition Coefficient”. Compendium of Chemical Terminology: IUPAC Recommendations. Oxford: Blackwell Science. doi:10.1351/goldbook. ISBN 0-86542-684-8. http://goldbook.iupac.org/P0447.html and • Sangster, James (1997). Octanol-Water Partition Coefficients: Fundamentals and Physical Chemistry, Vol. 2 of Wiley Series in Solution Chemistry. Chichester: John Wiley & Sons Ltd. pp. 178 pages. The RPI of retinol is approximatively 1. The RPI of retinal and retinol esters are well-known by the one skilled in the art and are similar to RPI of retinol. The net RPI of an emollient to the retinoid is the difference between the Emollient RPI and the Retinoid RPI. The net RPI of a composition to the retinoid is the difference between the Composition RPI and the Retinoid RPI. […]

[2] = RPI=log K, octanol/water; cited from earlier work

net relative polarity index to retinol [1] | Molecule | RPI (relative polarity index) [2]
9.11 | CCCCCCCCCCCCCC(C)C [isohexadecane] | 
 | CC1=C(/C=C/C(C)=C/C=C/C(C)=C/CO)C(C)(C)CCC1 [retinol] | ~1
having the same polarity as retinol | PPG15 stearyl ether | 
